Experimental data from patent US20250099622A1, “COMPOSITIONS AND METHODS FOR EXPRESSING THERAPEUTICS” (priority 2022, published 2025).

Tests used:
Human NPR-B = molecular target: T1, Human NPR-B (Homo sapiens, UniProt P20594); test: Biacore SPR kinetic affinity binding to immobilized NPR-B
T1 construct: purchased R&D system
T1 sequence (P20594 23-458 limits assumed): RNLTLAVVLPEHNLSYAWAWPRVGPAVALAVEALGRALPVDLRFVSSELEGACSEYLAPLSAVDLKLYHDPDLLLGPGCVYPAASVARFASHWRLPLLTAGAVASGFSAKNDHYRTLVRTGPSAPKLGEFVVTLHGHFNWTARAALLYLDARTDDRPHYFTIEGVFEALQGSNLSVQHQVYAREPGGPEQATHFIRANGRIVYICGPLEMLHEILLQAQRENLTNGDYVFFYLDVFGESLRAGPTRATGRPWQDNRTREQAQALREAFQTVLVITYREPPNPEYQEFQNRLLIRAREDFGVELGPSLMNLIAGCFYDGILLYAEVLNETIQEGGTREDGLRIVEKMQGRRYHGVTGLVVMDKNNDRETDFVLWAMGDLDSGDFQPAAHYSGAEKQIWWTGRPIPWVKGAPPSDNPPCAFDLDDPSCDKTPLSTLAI
Protocol: The biological function of these purified protein was assayed for their stimulation of production of cGMP, using NPR-B receptor positive cell line, NIH/3T3 and NPR-B negative cell line HEK293 cells. The determination of cGMP was assay by ELISA using commercial CNP as standard curves. […] Surface preparation. NBR-B was immobilized at different levels in three flow cells via standard amine coupling, leaving Fc 1 unmodified to serve as a reference. All surface plasmon resonance (SPR) analysis was performed on a BIAcore 3000 system using series CM5 sensor chips. Data processing and analysis were performed using BIAevaluation software. All sensorgrams were double referenced by subtracting the response on a reference flow cell and a blank sample. Human NPR-B (R&D system) was covalently attached to a CM5 chip via amine coupling. A surface density of 6600 RU was used for measurements with natriuretic peptides Sequential injections of CNP (0.5-8 nM) were performed at a flow rate of […] (300 s for each), followed by a dissociation time of 900 s. […] Kinetic parameters were calculated assuming a simple 1:1 (Langmuir) binding. […] All SPR analysis was performed on a BIAcore 3000 system using series CM5 sensor chips. Data processing and analysis were performed using BIAevaluation software. All sensorgrams were double referenced by subtracting the response on a reference flow cell and a blank sample. Human NPR-B (R&D system) was covalently attached to a CM5 chip via amine coupling. A surface density of 3100 RU was used for measurements with natriuretic peptides Sequential injections of AMI263 (FC4-CNP) (0.125-2 nM) were performed at a flow rate of […] (300 s for each), followed by a dissociation time of 900 s. […] Kinetic parameters were calculated assuming a simple 1:1 (Langmuir) binding. […] All SPR analysis was performed on a BIAcore 3000 system using series CM5 sensor chips. Data processing and analysis were performed using BIAevaluation software. All sensorgrams were double referenced by subtracting the response on a reference flow cell and a blank sample. Human NPR-B (R&D system) was covalently attached to a CM5 chip via amine coupling. […] Kinetic parameters were calculated assuming a simple 1:1 (Langmuir) binding. […] All SPR analysis was performed on a BIAcore 3000 system using series CM5 sensor chips. Data processing and analysis were performed using BIAevaluation software. All sensorgrams were double referenced by subtracting the response on a reference flow cell and a blank sample. Human NPR-B (R&D system) was covalently attached to a CM5 chip via amine coupling. A surface density of 3100 RU was used for measurements with natriuretic peptides Sequential injections of AMI263 (FC4-CNP) (0.5-300 nM) were performed at a flow rate of […] (300 s for each), followed by a dissociation time of 900 s. […] Kinetic parameters were calculated assuming a simple 1:1 (Langmuir) binding. […] All SPR analysis was performed on a BIAcore 3000 system using series CM5 sensor chips. Data processing and analysis were performed using BIAevaluation software. All sensorgrams were double referenced by subtracting the response on a reference flow cell and a blank sample. Human NPR-B (R&D system) was covalently attached to a CM5 chip via amine coupling.

[1] = tested on: NIH3T3 cells (cGMP secreted); test: EC50 for CNP-Fc constructs, cGMP ELISA of NIH3T3 supernatant; assay type: cell-based; settings: NIH3T3, 30 minutes, 1.8 mM IBMX, cGMP secreted by the cells; FIG. 25B
Protocol: EC50 for CNP-Fc described herein were measured by ELISA. 2.5E+05 NIH3T3 cells/well were plated. […] After 30 minutes, supernatant was collected for cGMP determined via ELISA. FIG. 25A illustrates a standard curve of cGMP.

[2] = background statement; cited from earlier work
[3] = molecular target: T2, NPR-B on NIH/3T3 cells (NPR-B receptor positive cell line) (UniProt Q6VVW5 17-1047, limits assumed); test: cell-based or functional assay
T2 sequence (looked up): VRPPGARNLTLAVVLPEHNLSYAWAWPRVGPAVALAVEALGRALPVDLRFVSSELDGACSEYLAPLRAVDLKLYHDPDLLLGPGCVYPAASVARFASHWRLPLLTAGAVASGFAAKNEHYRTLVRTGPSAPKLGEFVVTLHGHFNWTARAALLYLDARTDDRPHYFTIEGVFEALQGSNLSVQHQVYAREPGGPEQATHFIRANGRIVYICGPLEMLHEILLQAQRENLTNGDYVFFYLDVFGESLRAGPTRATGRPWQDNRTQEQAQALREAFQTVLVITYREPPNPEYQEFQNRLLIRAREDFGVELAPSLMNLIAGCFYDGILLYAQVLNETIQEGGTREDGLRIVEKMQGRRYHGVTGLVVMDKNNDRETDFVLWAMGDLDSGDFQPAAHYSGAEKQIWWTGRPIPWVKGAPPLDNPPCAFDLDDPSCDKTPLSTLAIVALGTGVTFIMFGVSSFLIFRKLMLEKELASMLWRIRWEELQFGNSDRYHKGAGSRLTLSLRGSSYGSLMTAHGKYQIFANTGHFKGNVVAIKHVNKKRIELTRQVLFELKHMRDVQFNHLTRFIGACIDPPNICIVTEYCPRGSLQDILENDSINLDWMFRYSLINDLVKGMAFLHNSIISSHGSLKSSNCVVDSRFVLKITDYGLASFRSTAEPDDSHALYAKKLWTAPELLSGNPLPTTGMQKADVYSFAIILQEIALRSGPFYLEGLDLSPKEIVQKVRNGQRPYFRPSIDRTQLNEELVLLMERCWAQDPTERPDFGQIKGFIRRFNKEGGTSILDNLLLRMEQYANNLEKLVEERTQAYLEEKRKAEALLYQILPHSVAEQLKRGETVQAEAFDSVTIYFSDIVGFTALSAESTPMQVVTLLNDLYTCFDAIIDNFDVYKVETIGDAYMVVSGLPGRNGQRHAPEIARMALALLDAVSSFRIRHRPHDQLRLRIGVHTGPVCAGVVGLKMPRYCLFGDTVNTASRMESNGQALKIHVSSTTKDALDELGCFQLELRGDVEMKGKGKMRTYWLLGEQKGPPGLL

[4] = molecular target: T2, NPR-B on NIH/3T3 cells (NPR-B receptor …); test: cell-based or functional assay; remark: listed apart in the source
Human NPR-B (R&D system) [5] = molecular target: T3, Human NPR-B (R&D system) (human, UniProt P20594 23-458, limits assumed); test: SPR (Biacore 3000), human NPR-B amine-coupled to CM5 chip, single-cycle kinetics, 1:1 Langmuir fit
T3 construct: Bought protein immobilised on the Biacore chip; also called NBR-B; natriuretic peptide receptor B
T3 sequence (looked up): T1 sequence (P20594 23-458 limits assumed)
Protocol: Kinetic parameters were calculated assuming a simple 1:1 (Langmuir) binding. […] All SPR analysis was performed on a BIAcore 3000 system using series CM5 sensor chips. Data processing and analysis were performed using BIAevaluation software. All sensorgrams were double referenced by subtracting the response on a reference flow cell and a blank sample. Human NPR-B (R&D system) was covalently attached to a CM5 chip via amine coupling. […] Kinetic parameters were calculated assuming a simple 1:1 (Langmuir) binding. […] All SPR analysis was performed on a BIAcore 3000 system using series CM5 sensor chips. Data processing and analysis were performed using BIAevaluation software. All sensorgrams were double referenced by subtracting the response on a reference flow cell and a blank sample. Human NPR-B (R&D system) was covalently attached to a CM5 chip via amine coupling. […] Kinetic parameters were calculated assuming a simple 1:1 (Langmuir) binding. […] All SPR analysis was performed on a BIAcore 3000 system using series CM5 sensor chips. Data processing and analysis were performed using BIAevaluation software. All sensorgrams were double referenced by subtracting the response on a reference flow cell and a blank sample. Human NPR-B (R&D system) was covalently attached to a CM5 chip via amine coupling.

Human NPR-B (R&D system) [6] = molecular target: T3, Human NPR-B (R&D system); test: SPR (Biacore 3000), FIG. 7C, single-cycle kinetics, NPR-B at 6600 RU on CM5, CNP 0.5-8 nM; differs from Table 32
Protocol: Kinetic parameters were calculated assuming a simple 1:1 (Langmuir) binding. […] All SPR analysis was performed on a BIAcore 3000 system using series CM5 sensor chips. Data processing and analysis were performed using BIAevaluation software. All sensorgrams were double referenced by subtracting the response on a reference flow cell and a blank sample. Human NPR-B (R&D system) was covalently attached to a CM5 chip via amine coupling. […] Kinetic parameters were calculated assuming a simple 1:1 (Langmuir) binding. […] All SPR analysis was performed on a BIAcore 3000 system using series CM5 sensor chips. Data processing and analysis were performed using BIAevaluation software. All sensorgrams were double referenced by subtracting the response on a reference flow cell and a blank sample. Human NPR-B (R&D system) was covalently attached to a CM5 chip via amine coupling. […] Kinetic parameters were calculated assuming a simple 1:1 (Langmuir) binding. […] All SPR analysis was performed on a BIAcore 3000 system using series CM5 sensor chips.

Row | Molecule | ka (Human NPR-B; (FIG. 7C-7I)) | kd (Human NPR-B; (FIG. 7C-7I)) | ka (Human NPR-B; Table 32 summary of affinity) | kd (Human NPR-B; Table 32 summary of affinity) | EC50 values (rank order) [1] | half-life [2] | EC50 (cGMP production, table 'EC50 NIH3T3 cells', row CNP-22) [3] [nM] | EC50 (cGMP production, drawn table, row CNP-22) [4] [nM] | EC50 (read off the curve), cGMP production [4] [nM] | Kd (Human NPR-B (R&D system) [5]) [nM] | Kd (Human NPR-B (R&D system) [6]) [nM] | kon (Human NPR-B (R&D system) [6]) [M⁻¹ s⁻¹]
1 | CC[C@H](C)[C@@H]1NC(=O)[C@H](CCCNC(=N)N)NC(=O)[C@H](CC(=O)O)NC(=O)[C@H](CC(C)C)NC(=O)[C@H](CCCCN)NC(=O)[C@H](CC(C)C)NC(=O)CNC(=O)[C@H](Cc2ccccc2)NC(=O)[C@@H](NC(=O)CNC(=O)[C@H](CCCCN)NC(=O)[C@H](CO)NC(=O)[C@H](CC(C)C)NC(=O)CN)CSSC[C@@H](C(=O)O)NC(=O)CNC(=O)[C@H](CC(C)C)NC(=O)CNC(=O)[C@H](CO)NC(=O)[C@H](CCSC)NC(=O)[C@H](CO)NC(=O)CNC1=O [CNP-22, reference compound] | 1.31e7 | 4.74E-4 | 1.37E+07 | 4.74E−04 | CNP-22 ≡Fc4-CNP36>Aflibercept-Fc4-CNP36>Fc1-CNP36>>Fc4-CNP22 | only a few minutes | – | – | – | – | – | –
2 | GLSKGCFGLKLDRIGSMSGLGC (also called C-type natriuretic peptide) [CNP-22] | – | – | – | – | – | – | 11.8 | 11.8 | ~10 | 0.0346 | 0.0363 | 1.31e+07
